Test results: ChEMBL document CHEMBL1201862, “PubChem BioAssay data set” (2004)
Active and inactive are the calls of the source.

Experiments:
[1] = HEp-2 cell cytotoxicity, dose response, cytotoxicity control for RSV inhibitor project, HTS (AID 2410); assay type: functional; conditions: human respiratory syncytial virus
[2] = molecular target: Cytochrome P450 2D6 (Homo sapiens, UniProt P10635);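 note: CYP2D6 member of a cytochrome P450 panel assay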
[3] = molecular target: Cytochrome P450 2C9 (Homo sapiens, UniProt P11712)
[4] = molecular target: Cytochrome P450 3A4 (Homo sapiens, UniProt P08684);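 note: CYP3A4 tested as one member of a cytochrome P450 panel screen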
[5] = inhibitors of intracellular T. cruzi replication, confirmation, NIH3T3 host cells, beta-gal luminescence (AID 2044); assay type: functional, cell-based;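 note: intracellular parasites grown in NIH/3T3 mouse fibroblasts as host cells; luminescent beta-galactosidase reporter signal from transgenic T. cruzi replicating inside host cells; inhibitors lower the luminescence signal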
[6] = cytotoxicity toward NIH3T3 fibroblasts, dose response, counter-screen, cell-based, ATP luminescence, mouse fibroblasts (AID 2010); assay type: functional;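 note: cells exposed to compound for about 90 hours before reading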
[7] = molecular target: T1, Cytochrome P450 1A2 (Homo sapiens, UniProt P05177);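 note: PubChem cytochrome P450 panel assay, CYP1A2 panel member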
T1 sequence (P05177 whole entry): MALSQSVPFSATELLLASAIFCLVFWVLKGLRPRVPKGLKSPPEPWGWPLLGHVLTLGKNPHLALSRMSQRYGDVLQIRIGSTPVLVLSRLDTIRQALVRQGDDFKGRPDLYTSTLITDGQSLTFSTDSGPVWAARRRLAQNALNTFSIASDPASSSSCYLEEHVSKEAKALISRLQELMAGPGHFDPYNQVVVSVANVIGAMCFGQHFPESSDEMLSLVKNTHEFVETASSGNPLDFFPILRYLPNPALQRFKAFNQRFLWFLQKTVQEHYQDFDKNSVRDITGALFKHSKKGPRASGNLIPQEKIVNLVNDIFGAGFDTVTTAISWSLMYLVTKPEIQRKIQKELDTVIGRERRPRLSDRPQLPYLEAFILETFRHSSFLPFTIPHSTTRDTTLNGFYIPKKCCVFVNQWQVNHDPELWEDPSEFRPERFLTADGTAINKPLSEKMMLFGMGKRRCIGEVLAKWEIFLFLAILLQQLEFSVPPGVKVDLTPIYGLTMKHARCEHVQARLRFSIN

[8] = tested on: Streptococcus; assay: Group A Streptococcus viability loss, dose response, counter-screen for streptokinase expression inhibitor project, luminescence, BacTiterGlo (AID 1915); assay type: functional, organism-based;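 note: potency for reduction of bacterial viability or growth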
[9] = tested on: Streptococcus sp. 'group A'; assay: growth inhibition of control SK(-) GAS strain, dose response, counter-screen for streptokinase expression inhibitor project, luminescence, kanamycin, BacTiterGlo, confirmation (AID 1900); assay type: functional, organism-based

Cytochrome P450 3A4, sequence (P08684 whole entry): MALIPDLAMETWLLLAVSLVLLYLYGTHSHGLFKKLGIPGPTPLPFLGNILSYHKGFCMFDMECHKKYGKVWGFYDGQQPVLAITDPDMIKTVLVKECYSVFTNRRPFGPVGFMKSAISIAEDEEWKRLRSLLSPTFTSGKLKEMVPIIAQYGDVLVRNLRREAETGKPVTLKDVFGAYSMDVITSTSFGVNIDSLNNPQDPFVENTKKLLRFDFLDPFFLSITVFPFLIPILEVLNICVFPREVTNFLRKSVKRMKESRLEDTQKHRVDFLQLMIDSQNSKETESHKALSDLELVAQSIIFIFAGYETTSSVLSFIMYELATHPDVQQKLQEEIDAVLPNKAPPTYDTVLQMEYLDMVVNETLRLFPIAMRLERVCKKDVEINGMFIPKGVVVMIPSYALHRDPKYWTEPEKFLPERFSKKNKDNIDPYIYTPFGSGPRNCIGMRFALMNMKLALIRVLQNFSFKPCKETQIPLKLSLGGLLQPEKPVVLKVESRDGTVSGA
Cytochrome P450 2C9, sequence (P11712 whole entry): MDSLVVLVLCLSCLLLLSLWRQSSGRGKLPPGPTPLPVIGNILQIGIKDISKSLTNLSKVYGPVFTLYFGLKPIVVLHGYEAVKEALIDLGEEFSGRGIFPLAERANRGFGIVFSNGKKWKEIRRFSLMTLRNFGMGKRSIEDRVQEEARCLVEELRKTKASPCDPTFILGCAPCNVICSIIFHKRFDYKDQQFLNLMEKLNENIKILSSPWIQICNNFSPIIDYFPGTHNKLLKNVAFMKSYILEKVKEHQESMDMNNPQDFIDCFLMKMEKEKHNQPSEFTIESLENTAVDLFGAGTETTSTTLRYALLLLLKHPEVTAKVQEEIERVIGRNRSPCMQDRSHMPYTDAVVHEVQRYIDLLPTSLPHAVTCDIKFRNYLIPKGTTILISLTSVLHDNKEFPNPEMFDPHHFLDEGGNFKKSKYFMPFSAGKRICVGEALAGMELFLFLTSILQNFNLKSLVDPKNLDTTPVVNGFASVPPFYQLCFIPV
Cytochrome P450 2D6, sequence (P10635 whole entry): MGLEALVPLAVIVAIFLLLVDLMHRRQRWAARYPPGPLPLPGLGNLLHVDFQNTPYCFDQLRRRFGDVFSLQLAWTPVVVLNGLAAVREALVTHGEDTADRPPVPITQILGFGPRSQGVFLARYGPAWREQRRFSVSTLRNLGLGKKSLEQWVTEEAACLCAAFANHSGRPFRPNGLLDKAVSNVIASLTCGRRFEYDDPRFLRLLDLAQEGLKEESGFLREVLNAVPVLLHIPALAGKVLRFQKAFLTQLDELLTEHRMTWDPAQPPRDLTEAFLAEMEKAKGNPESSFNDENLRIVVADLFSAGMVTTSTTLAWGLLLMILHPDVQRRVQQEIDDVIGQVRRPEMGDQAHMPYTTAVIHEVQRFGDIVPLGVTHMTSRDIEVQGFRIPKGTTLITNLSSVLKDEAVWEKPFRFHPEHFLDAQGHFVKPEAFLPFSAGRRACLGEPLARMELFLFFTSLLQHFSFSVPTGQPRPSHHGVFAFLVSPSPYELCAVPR

With `c1ccc(Nc2nc(-c3ccccc3)nc3ccccc23)cc1` the CC50 [1] was 24.8 µM (active).
For `CCOC(=O)C1=C2SCC(=O)N2C(N)=C(C#N)C1`, the AC50 [2] was 11.2 µM (inconclusive) and the AC50 [3] was 20 µM (inconclusive).
In the case of `Cn1c(=O)c(-c2ccc(F)cc2)nc2cncnc21`, the AC50 [4] was 7.94 µM (inconclusive).
With `S[C@@H]1CCCN(Cc2ccccc2)C1` the AC50 [4] was 3.98 µM (inconclusive).
With `CC1CCc2nc(NC(=O)c3ccc(S(=O)(=O)N4CCCc5ccccc54)cc3)sc2C1` (stereo not given) the EC50 [5] was 1.42 µM (active) and the EC50 [6] was > 60 µM (not active).
In the case of `CCCC[C@@H]1C[C@H]1C(NC(=O)c1cccnc1)c1ccc(-c2ccccc2)cc1` (stereo not given in full), the AC50 [4] was 0.794 µM (inconclusive).
With `CCC(C)c1ccc(NC(=O)c2cccs2)cc1` (stereo not given) the CC50 [1] was < 0.1 µM (active).
In the case of `Clc1ccccc1CSc1cc2c(nn1)-c1ccccc1CC2`, the CC50 [1] was 22.9 µM (active).
In the case of `COc1ccc2nc(O)c(CNc3cccc(C)c3)cc2c1`, the CC50 [1] was 6.97 µM (active).
In the case of `CCC(=O)NC(=S)N1CCN(c2ccc([N+](=O)[O-])cc2Cl)CC1`, the AC50 [4] was 28.2 µM (inconclusive).
For `COc1cccc(CNC(=O)C2CCN(S(=O)(=O)N3CCCCC3)CC2)c1`, the AC50 [3] was 11.2 µM (inconclusive).
With `COCc1ccc(CN2CCCC(CCC(=O)NCc3cccc(OC)c3)C2)o1` (stereo not given) the EC50 [5] was 0.914 µM (active) and the EC50 [6] was > 60 µM (not active).
In the case of `O=C(c1ccc(Cl)cc1)N1CCN(c2ccc([N+](=O)[O-])c(NCc3cccnc3)c2)CC1`, the CC50 [1] was 35.8 µM (active).
For `COC(=O)CC[C@@H](C)[C@H]1CC[C@H]2[C@H]3CC[C@H]4C[C@@H]5CC[C@@]4(C)C3(O5)[C@@H](Br)[C@@H](Br)[C@@]12C`, the AC50 [4] was 3.98 µM (inconclusive).
In the case of `O=c1cnc2cnc(N3CCOCC3)nc2n1CCc1ccccc1`, the AC50 [4] was 15.8 µM (inconclusive).
In the case of `O=C(c1cccs1)n1nc(-c2ccc(Cl)cc2)nc1NCc1ccco1`, the AC50 [3] was 12.6 µM (inconclusive).
For `Cc1ccc(-n2c(SCc3ccc([N+](=O)[O-])cc3)nc3ccccc3c2=O)cc1`, the AC50 [4] was 11.2 µM (inconclusive) and the AC50 [3] was 0.0891 µM (inconclusive).
For `COc1cc(/C=C(/C#N)c2nc3ccccc3[nH]2)ccc1Oc1ncccc1[N+](=O)[O-]`, the AC50 [2] was 3.16 µM (inconclusive).
For `CC(C)(C)c1ccc(C(=O)N2CCC(C(=O)NC3CCCCCC3)CC2)cc1`, the CC50 [1] was 42 µM (active).
In the case of `c1ccc2c(N3CCOCC3)nc(-c3ccncc3)nc2c1`, the CC50 [1] was 42.6 µM (active).
In the case of `Cc1cc(C)c(C#N)c(OCC(=O)c2ccc(Br)cc2)n1`, the AC50 [4] was 3.55 µM (inconclusive).
With `O=C(Cc1sc(Nc2ccccc2)nc1-c1ccccc1)NCc1ccccc1` the CC50 [1] was 11.2 µM (active).
For `CC1CCc2sc3nc(NCc4ccco4)n4ncnc4c3c2C1` (stereo not given), the CC50 [1] was 30.3 µM (active).
In the case of `CCCS(=O)(=O)N1CCN(Cc2ccc3c(c2)c2ccccc2n3CC)CC1`, the CC50 [1] was 20.4 µM (active).
For `Cc1ccc(C2=NN(S(C)(=O)=O)C(c3cccs3)C2)cc1` (stereo not given), the AC50 [2] was 14.1 µM (inconclusive) and the AC50 [7] was 31.6 µM (inconclusive).
For `Cc1ccc(NC2=NC(=O)CS2)cc1`, the CC50 [1] was 34.3 µM (active).
For `O=C(/C=C/c1cccc([N+](=O)[O-])c1)NCCSCc1ccccc1Cl`, the CC50 [1] was 25.4 µM (active).
For `Cn1nc([N+](=O)[O-])nc1Oc1ccccc1N`, the EC50 [5] was 1.08 µM (active) and the EC50 [6] was > 60 µM (not active).
In the case of `O=C(NCCN1CCN(C(=O)C(c2ccccc2)c2ccccc2)CC1)C(=O)Nc1ccccc1`, the AC50 [3] was 12.6 µM (inconclusive).
For `O=C(Oc1ccccc1)N1CCC2(CCCN(c3ccccn3)C2)CC1`, the AC50 [2] was 39.8 µM (inconclusive) and the AC50 [3] was 5.01 µM (inconclusive).
In the case of `CC(C)N1CCN(Cc2ccc(-c3ccccc3Cl)o2)CC1CCO` (stereo not given), the EC50 [5] was 1.61 µM (active) and the EC50 [6] was > 60 µM (inconclusive).
In the case of `COc1ccc(CCNc2cc(C)nc3c(-c4ccccc4)cnn23)cc1OC`, the CC50 [1] was 43.2 µM (active).
For `CC(C)NC(=O)c1sc2nc3c(c(-c4cccs4)c2c1N)CN(C)CC3`, the EC50 [5] was 0.856 µM (active) and the EC50 [6] was > 60 µM (inconclusive).
In the case of `O=C(NCc1cccnc1)c1c(O)c2cccc3c2n(c1=O)CCC3`, the CC50 [1] was 22.8 µM (active).
With `CO[C@H]1COC(=O)C/C=C\[C@@H](C)COC(=O)[C@@H](OCc2ccccc2)/C=C\[C@@H]1C` the AC50 [4] was 3.98 µM (inconclusive).
For `Cc1ccc(NC(=O)CC2CS(=O)(=O)CC2CC(=O)Nc2ccc(C)c(C)c2)cc1C` (stereo not given), the AC50 [3] was 2.82 µM (inconclusive).
In the case of `Cc1cc(NC(=S)Nc2ccccc2)ccc1Br`, the AC50 [3] was 11.2 µM (inconclusive).
With `Cc1nc(N2CCOCC2)nc(N2CCN(c3ccccc3)CC2)c1[N+](=O)[O-]` the AC50 [4] was 3.55 µM (inconclusive).
For `COc1ccc(CCN(C)CC(=O)Nc2c(C)cc(C)cc2C)cc1OC`, the EC50 [5] was 0.592 µM (active) and the EC50 [6] was > 60 µM (not active).
With `FC(F)(F)c1ccccc1-c1nccc(NCc2ccccc2)n1` the AC50 [2] was 25.1 µM (inconclusive), the AC50 [4] was 31.6 µM (inconclusive) and the AC50 [3] was 1 µM (inconclusive).
For `CC(=O)N1CCC2(CCCN(c3cccc(-c4ccccc4)c3)C2)CC1`, the AC50 [2] was 39.8 µM (inconclusive) and the AC50 [4] was 7.94 µM (inconclusive).
For `O=C1Nc2ccccc2CCC1Sc1nnc(-c2ccc(Cl)cc2)s1` (stereo not given), the CC50 [1] was 3.7 µM (active).
With `COc1ccc(C(=O)C2CCCN(Cc3cnc(N4CCCC4)s3)C2)cc1OC` (stereo not given) the EC50 [5] was 0.26 µM (active) and the EC50 [6] was > 30 µM (not active).
For `COc1ccccc1NC(=O)COC(=O)c1ccc(S(=O)(=O)NCc2ccco2)cc1`, the AC50 [2] was 11.2 µM (inconclusive) and the AC50 [7] was 12.6 µM (inconclusive).
For `NC(=O)C1CCN(C(=O)C(=O)c2cn(CC(=O)N3CCCCCC3)c3ccccc23)CC1`, the EC50 [5] was 1.32 µM (active) and the EC50 [6] was > 60 µM (not active).
In the case of `COc1cc(C(=O)NC(=S)Nc2cccc(-c3cc4ccccc4oc3=O)c2)cc(OC)c1OC`, the AC50 [7] was 2.82 µM (inconclusive).
For `Cc1ccc(CN(Cc2cccnc2)C(S)=Nc2cc(Cl)ccc2C)cc1`, the EC50 [5] was 1.61 µM (active) and the EC50 [6] was > 60 µM (not active).
In the case of `Cc1ccc(/C=C/C2=Cc3c(sc(NC(=O)CSc4nnc(N)[nH]4)c3C#N)C(C)(C)C2)o1`, the AC50 [2] was 22.4 µM (inconclusive).
For `CCCN(CC#CC(O)(c1ccccc1)c1cccnc1)CCC` (stereo not given), the EC50 [5] was 0.463 µM (active) and the EC50 [6] was > 60 µM (not active).
With `CO[C@@H]1/C=C\O[C@@]2(C)Oc3c(C)c(O)c4c(c3C2=O)/C(=N/[C@H]2CC[C@H](O)O[C@@H]2C)C=C(NC(=O)/C(C)=C\C(=O)[C@@H]2C[C@@H]2[C@@H](O)[C@H](C)[C@@H](O)[C@H](C)[C@H](OC(C)=O)[C@@H]1C)C4=O` the AC50 [2] was 3.16 µM (inconclusive) and the AC50 [3] was 3.98 µM (inconclusive).
In the case of `c1cncc(-c2ccc3ncnc(NCCN4CCOCC4)c3c2)c1`, the AC50 [2] was 39.8 µM (inconclusive).
With `COCCn1c(=O)c(-c2ccc(F)cc2)nc2cncnc21` the AC50 [4] was 12.6 µM (inconclusive).
In the case of `CCOC(=O)c1cc2sc(C)cc2n1CCCN1C(=O)c2ccccc2C1=O`, the AC50 [2] was 15.8 µM (inconclusive).
For `Cc1ccc(S(=O)(=O)N2CCC(=O)N(C(COCc3ccc(Cl)cc3Cl)Cc3ccccc3)CC2)cc1` (stereo not given), the EC50 [5] was 1.58 µM (active) and the EC50 [6] was 34.1 µM (active).
In the case of `C[C@@H]1CC[C@H]2C(=O)NC[C@@H](O)CN2[C@@H]1c1ccc(Br)cc1`, the AC50 [2] was 3.16 µM (inconclusive), the AC50 [4] was 3.98 µM (inconclusive) and the AC50 [3] was 5.01 µM (inconclusive).
With `CCOC(=O)c1oc2ccc(CNC3CCCCC3)c(Cl)c2c1C` the EC50 [5] was 1.73 µM (active) and the EC50 [6] was > 60 µM (not active).
In the case of `Cc1ccc2ccc(S(=O)(=O)NCc3ccco3)cc2c1`, the CC50 [1] was 29.2 µM (active).
For `Cc1nc(N)sc1-c1csc(Nc2cccc(O)c2)n1`, the CC50 [1] was 48.4 µM (active).
In the case of `O=C1CC(N2CCN(CCc3ccccn3)CC2)C(=O)N1c1ccc(Cl)cc1` (stereo not given), the AC50 [2] was 12.6 µM (inconclusive).
With `O=C(O)[C@H]([C@H]1NCCS1)N1C(=O)c2ccccc2C1=O` the AC50 [7] was 5.01 µM (inconclusive).
With `CCCOc1ccc(N2C(=O)CC(SC(=N)N/N=C(\C)c3cccs3)C2=O)cc1` (stereo not given) the AC50 [2] was 15.8 µM (inconclusive) and the AC50 [7] was 15.8 µM (inconclusive).
For `Cc1ccc2occ(/C=N/NC(N)=S)c(=O)c2c1`, the CC50 [1] was > 50 µM (active).
In the case of `Cc1ccc([N+](=O)[O-])cc1/N=C(/c1cccc([N+](=O)[O-])c1)N1CCOCC1`, the AC50 [4] was 20 µM (inconclusive) and the AC50 [3] was 25.1 µM (inconclusive).
For `COc1ccccc1CNc1ncnc2ccc(-c3ccccc3C#N)cc12`, the AC50 [2] was 3.16 µM (inconclusive) and the AC50 [3] was 0.631 µM (inconclusive).
In the case of `CCCCOC(=O)c1ccc(O)cc1` [BUTYLPARABEN], the AC50 [2] was 12.6 µM (inconclusive).
With `Cc1sc2ccccc2c1CC1=NCCN1` [METIZOLINE] the AC50 [2] was 31.6 µM (inconclusive).
With `C[C@H]1[C@H](C)CC[C@]2(C(=O)O)CC[C@]3(C)C(=CC[C@@H]4[C@@]5(C)CC[C@H](O)C(C)(C)[C@@H]5CC[C@]43C)[C@H]12` [URSOLIC ACID] the EC50 [8] was 0.88 µM (active), the EC50 [9] was 0.949 µM (active) and the CC50 [1] was 28.4 µM (active).
